In brackets after ≈: the same amount, converted by molar mass.
Columns and labels:
Type in all cases: functional
[1] = system: Mycobacterium tuberculosis; assay: Antimicrobial activity against Mycobacterium tuberculosis H37Rv subculture 3 with katG D329H mutant
[2] = system: Mycobacterium tuberculosis; assay: Antimicrobial activity against Mycobacterium tuberculosis H37Rv subculture 4 with wild type katG mutation in presence of catalase activity
[3] = system: Mycobacterium tuberculosis; assay: Antimicrobial activity against Mycobacterium tuberculosis H37Rv subculture 1 with wild type katG mutation
[4] = system: Mycobacterium tuberculosis; assay: Antimicrobial activity against Mycobacterium tuberculosis H37Rv subculture 5 with wild type katG mutation in absence of catalase activity
[5] = system: Mycobacterium tuberculosis; assay: Antimicrobial activity against Mycobacterium tuberculosis H37Rv subculture 6 with katG W328R mutant

Compound NNC(=O)c1ccncc1 [ISONIAZID] has an MIC [1] greater than 2 µg/mL, an MIC [2] greater than 2 µg/mL and an MIC [3] of 0.4 µg/mL (≈ 2.92 µM). The MIC [4] was 0.4 µg/mL (≈ 2.92 µM) and the MIC [5] was greater than 2 µg/mL.

From ChEMBL document CHEMBL1145489, “Isoniazid induces its own resistance in nonreplicating Mycobacterium tuberculosis” (Antimicrob Agents Chemother, 2007)
